Activity calls are given as the source filed them. The rule behind the calls is not given here.
Key:
[1] = molecular target: Programmed cell death protein 1/Programmed cell death 1 ligand 1 (Homo sapiens, UniProt Q15116+Q9NZQ7); experiment: Antagonist activity at PD-1/PD-L1 interaction (unknown origin); assay type: protein-complex assay
[2] = molecular target: Programmed cell death 1 ligand 1 (Homo sapiens) (UniProt Q9NZQ7); experiment: Induction of human PD-L1 dimerization at 1:1 molar ratio of protein:compound by 1H NMR analysis
Sequence of Programmed cell death 1 ligand 1 (Homo sapiens) (Q9NZQ7 whole entry): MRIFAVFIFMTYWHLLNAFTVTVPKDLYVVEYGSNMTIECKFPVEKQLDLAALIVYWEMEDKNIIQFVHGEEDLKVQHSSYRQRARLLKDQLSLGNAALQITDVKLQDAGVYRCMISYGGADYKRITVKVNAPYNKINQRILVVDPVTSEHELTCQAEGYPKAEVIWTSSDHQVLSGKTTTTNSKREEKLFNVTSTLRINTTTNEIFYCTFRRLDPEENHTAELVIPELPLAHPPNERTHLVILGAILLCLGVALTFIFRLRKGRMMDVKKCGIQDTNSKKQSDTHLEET

Sequence of Programmed cell death protein 1/Programmed cell death 1 ligand 1 (Q15116 whole entry): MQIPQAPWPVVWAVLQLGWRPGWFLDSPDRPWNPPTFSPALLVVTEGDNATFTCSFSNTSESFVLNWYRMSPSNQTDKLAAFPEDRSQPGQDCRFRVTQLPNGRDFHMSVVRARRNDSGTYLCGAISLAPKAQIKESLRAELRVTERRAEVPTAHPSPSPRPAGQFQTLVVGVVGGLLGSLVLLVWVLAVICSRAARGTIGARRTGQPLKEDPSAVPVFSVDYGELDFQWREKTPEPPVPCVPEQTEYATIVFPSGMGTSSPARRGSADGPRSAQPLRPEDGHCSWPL
Sequence of Programmed cell death protein 1/Programmed cell death 1 ligand 1 (Q9NZQ7 whole entry): as the sequence (Q9NZQ7 whole entry) above

Structure (SMILES)	IC50 [1]	Activity [2]
Cc1c(/C=C/c2cc(CN[C@@H](CO)C(=O)O)ccc2C(F)(F)F)cccc1-c1ccc2c(c1)OCCO2	13 nM	
CCNCc1nnnn1/C=C/c1cccc(-c2ccccc2)c1C		Active
Cc1c(/C=C/n2nnnc2C(C)NCCCO)cccc1-c1ccc2c(c1)OCCO2 (stereo unspecified)		Active
Cc1c(/C=C/n2nnnc2CN2CCCOC2)cccc1-c1ccccc1		Active
COCCNCc1ccc(C(F)(F)F)c(/C=C/c2cccc(-c3cccc(/C=C/c4cc(CN[C@@](C)(CO)C(=O)O)ccc4C(F)(F)F)c3C)c2Cl)c1	2.3 nM	
COc1cc(/C=C2\CCc3c2cccc3-c2cccc3c2CC/C3=C\c2cc(CN[C@H](CO)C(=O)O)cc(OC)c2)cc(CN[C@@H](CO)C(=O)O)c1	2.9 nM	
